Legend:
HUVECs = test: Endothelial cell apoptosis assay (TUNEL, ApopTag); type: cell-based, human; settings: for induction of endothelial cell apoptosis: in vitro, low serum (0.2%)
Protocol: FIG. 5. Endothelial cell apoptosis induced by TGA and ERT-L PEDF peptides. 90% confluent HUVECs were treated with increasing concentrations of TGA (FIG. 5A) or ERT-L (FIG. 5B). Apoptotic cells were detected with ApopTag assay kit (Intergen) and percent of TUNEL positive cells calculated.
Apoptosis by PEDF and by the 34-mer were mediated by the same signaling events including activation of JNK-1. Apoptosis by both PEDF and by its 34-mer fragment were abolished in the presence of JNK-1 specific inhibitor SP600125 (BioMol). […] The 44-mer had no activity.
Cells were plated on gelatinized glass cover slips in 24-well tissue culture plates at 5×10^4 cells/well, treated with indicated compounds in low serum (0.2%), fixed in 1% buffered paraformaldehyde, stained using the ApopTag in situ cell death detection kit according to the manufacturer's instructions (Serologicals corporation) and counterstained with propidium iodide. The percentage of terminal deoxynucleotidyl transferase-mediated dUTP nick end labeling (TUNEL)-positive cells was calculated as the number of TUNEL-positive cells (counted in 2-6 randomly selected fields from two different chambers) divided by the total number of cells. 600-1200 cells were scored for each treatment.
Human umbilical vein endothelial cells (HUVEC, NCI) were grown to 90% confluence and treated with peptides overnight in low (0.2%) serum. Apoptotic cells were detected using TUNEL assay kit (InterGene) and percent apoptotic cells were calculated (FIG. 5).

[1] = test system: Y-79 retinoblastoma cells; settings: previously shown (Alberdi et al., 1999); cited from earlier work
[2] = test system: Microvascular endothelial cells (HMVECs); test: VEGF-induced endothelial cell chemotaxis/migration assay (Boyden chamber); type: cell-based, human; settings: at 100 nM (44-mer: 100 nM or higher)
Protocol: FIG. 3. In vitro anti-angiogenic activity by […] and 44-mer PEDF peptides. Microvascular endothelial cells (HMVECs) chemotaxis up the gradient of pro-angiogenic VEGF was examined in the presence of the 44-mer or 34-mer. FIG. 3A Recombinant PEDF (rPEDF, BH) (10 nM), 34-mer (1 μM) and 44-mer (1 μM) were tested alone (empty bars), or in the presence of VEGF (hatched bars). Anti-PEDF neutralizing antibodies were added where shown (filled bars). FIG. 3B 34-mer (●) and 44-mer (♦) were tested with VEGF (100 pg/ml) at increasing concentrations. ED50 was determined using regression curves.
Two large peptides from PEDF, a “34-mer” (amino acids 24-57 of SEQ ID NO:1) and a “44-mer” (residues 58-101 of SEQ ID NO:1), were tested for their ability to block angiogenesis. […] (Alberdi et al., 1999) In the anti-angiogenesis assays, only the 34-mer inhibited VEGF-induced angiogenesis in vitro. Anti-angiogenic activity of the 34-mer peptide was blocked with neutralizing antibodies effective against the whole molecule.
HUVEC migration assay are performed as previously described (Good et al., PNAS, 1990). […] Then, the stained membranes are dried, mounted, and the cells migrated to the top part of membrane counted in 10 high-powered (400×) fields. […]

[3] = test system: bFGF-induced corneal angiogenesis; test: Mouse corneal neovascularization assay (bFGF pellet); type: in vivo; settings: for Positive comeas/total: bFGF 50 ng/pellet, day 5 after implantation; for effect on mouse corneal neovascularization in vivo: bFGF pellet, peptides at 10 and 100 μM
Protocol: Angiogenesis was induced in the mouse cornea by implanting slow release pellets containing bFGF (50 ng/pellet). Peptides at 10 and 100 μM were added where indicated. Angiogenesis was observed on day 5 after implantation and a vigorous ingrowth of the blood vessels reaching the pellet was scored as a positive response. The peptide abbreviations are as above; PBS is phosphate buffer solution.

[4] = test system: endothelial cells (HUVEC); test: Endothelial cell migration up the gradient of pro-angiogenic bFGF; type: cell-based, human
Protocol: HUVEC migration assay are performed as previously described (Good et al., PNAS, 1990). The cells are starved overnight in MCDB131 medium supplemented with 0.1% bovine serum albumin (BSA, Sigma) and placed at 1.5 10^6 cells/ml in the bottom part of a 48-well modified Boyden chambers (Neuroprob Corp.), separated from the top part by gelatinized micro porous membrane (8 μm pore size, Nucleopor/Whatman). The inverted chambers are incubated for 1.5 h for the cells to attach. The chamber are then re-inverted, test substances added to the top part of the top well and incubated for additional 3h30 to allow migration. The chamber are disassembled, the membranes fixed, the cells visualized using Diff-Quick staining kit (Fisher). Then, the stained membranes are dried, mounted, and the cells migrated to the top part of membrane counted in 10 high-powered (400×) fields. MCDB131 containing 0.1% BSA, is used as a negative control and 10 ng/ml bFGF as a positive control. Each substance is tested in quadruplicate to allow statistical evaluation of the data within a single experiment. Each experiment is repeated 3 times to ensure the reproducibility.
The peptides were tested in vitro for their ability to block endothelial cell migration up the gradient of pro-angiogenic bFGF.

Substance | induction of endothelial cell apoptosis (HUVECs) | binding to and differentiation of Y-79 retinoblastoma cells [1] | inhibition of VEGF-induced endothelial cell chemotaxis [2] | dose at which maximal apoptosis effect is reached (HUVECs; cultured endothelial cells) | Positive comeas/total ([3]; peptide 10 μM) | Positive comeas/total ([3]; peptide 100 μM) | ability to block endothelial cell migration up the gradient of bFGF [4] | effect on mouse corneal neovascularization in vivo [3]
44-mer: PEDF peptide, residues 58-101 of SEQ ID NO:1, previously shown to have neurotrophic activity (VLLSPLSVATALSALSLGAEQRTESIIHRALYYDLISSPDIHGT; listed as Homo sapiens) [reference compound] | no activity | bind to and induce differentiation | no inhibitory activity |  |  |  |  | 
DPFFKVPVNKLAAAVSNFGYDLYRVRSSMSPTTN [34-mer] |  |  | inhibited | 100 nM |  |  |  | 
acetyl-ERTESIIHRAL-amide (Ac-ERTESIIHRAL-NH2) [ERT-S, PEDF residues 78-88] |  |  |  |  | 5/6 | 4/6 |  | 
acetyl-ERTESIIHRALYYDLIS-amide (Ac-ERTESIIHRALYYDLIS-NH2) [ERT-L, PEDF residues 78-94] | induced apoptosis |  |  |  | 2/6 | 1/5 | showed anti-angiogenic activity | blocked mouse corneal neovascularization
acetyl-LYYDLISSPDIHGTYKE-amide (Ac-LYYDLISSPDIHGTYKE-NH2) [PEDF residues 88-104] |  |  |  |  | 5/6 | 5/5 |  | 
acetyl-SSPDIHGTYKE-amide (Ac-SSPDIHGTYKE-NH2) [PEDF residues 94-104] |  |  |  |  | 6/6 | 4/4 |  | 
acetyl-TGALVEEEDPF-amide (Ac-TGALVEEEDPF-NH2) [PEDF residues 16-26] | induced apoptosis |  |  |  | 4/6 | 2/6 | showed anti-angiogenic activity | blocked mouse corneal neovascularization
